Assay results as given in US20110045101A1, “FUNGICIDAL SUBSTITUTED AZOLES” (E.I. Du Pont De Nemours and Company, priority 2009, published 2011).
Marks after values point to notes of the source that are not given here.

What was measured:
Format in all cases: in vivo
Details in all cases: 100 = 100% disease control
[1] = test system: Erysiphe graminis f. sp. tritici; assay: Test J: wheat powdery mildew on wheat seedlings, sprayed the day before inoculation, visual disease rating
Text: (§1) General protocol for preparing test suspensions for Tests A-J: The test compounds were first dissolved in acetone in an amount equal to 3% of the final volume and then suspended at the desired concentration (in ppm) in acetone and purified water (50/50 mix) containing 250 ppm of the surfactant Trem® 014 (polyhydric alcohol esters). The resulting test suspensions were then used in tests A-J. Spraying a 200 ppm test suspension to the point of run-off on the test plants was the equivalent of a rate of 500 g/ha. […] The test suspension was sprayed to the point of run-off on wheat seedlings. […] A dash (-) indicates no test results. All results are for 200 ppm except where followed by “*”, which indicates 40 ppm.

Alternaria solani = assay: Test D: tomato early blight, sprayed the day before inoculation, visual disease rating
Text: as §1

Septoria tritici = assay: Test G: wheat leaf blotch on wheat seedlings, sprayed the day before inoculation, visual disease rating
Text: General protocol for preparing test suspensions for Tests A-J: The test compounds were first dissolved in acetone in an amount equal to 3% of the final volume and then suspended at the desired concentration (in ppm) in acetone and purified water (50/50 mix) containing 250 ppm of the surfactant Trem® 014 (polyhydric alcohol esters). The resulting test suspensions were then used in tests A-J. Spraying a 200 ppm test suspension to the point of run-off on the test plants was the equivalent of a rate of 500 g/ha. […] The test suspension was sprayed to the point of run-off on wheat seedlings. The following day the seedlings were inoculated with a spore suspension of Septoria tritici (the causal agent of wheat leaf blotch) and incubated in saturated atmosphere at 24° C. for 48 h, and then moved to a growth chamber at 20° C. for 19 days, after which time visual disease ratings were made. […] A dash (-) indicates no test results. All results are for 200 ppm except where followed by “*”, which indicates 40 ppm.

Septoria nodorum = assay: Test F: wheat glume blotch on wheat seedlings, sprayed the day before inoculation, visual disease rating
Text: as §1

[2] = test system: Puccinia recondita f. sp. tritici; assay: Test I: wheat leaf rust on wheat seedlings, sprayed the day before inoculation, visual disease rating
Text: as §1

Botrytis cinerea = assay: Test C: tomato Botrytis on tomato seedlings, sprayed the day before inoculation, visual disease rating
Text: General protocol for preparing test suspensions for Tests A-J: The test compounds were first dissolved in acetone in an amount equal to 3% of the final volume and then suspended at the desired concentration (in ppm) in acetone and purified water (50/50 mix) containing 250 ppm of the surfactant Trem® 014 (polyhydric alcohol esters). The resulting test suspensions were then used in tests A-J. Spraying a 200 ppm test suspension to the point of run-off on the test plants was the equivalent of a rate of 500 g/ha. […] The test suspension was sprayed to the point of run-off on tomato seedlings. […] A dash (-) indicates no test results. All results are for 200 ppm except where followed by “*”, which indicates 40 ppm.

[3] = 200 ppm, 0 = no control relative to controls

SMILES	Test J disease control rating [1, 3]	Test D disease control rating (Alternaria solani; [3])	Test G disease control rating (Septoria tritici; [3])	Test F disease control rating (Septoria nodorum; [3])	Test I disease control rating [2, 3]	Test C disease control rating (Botrytis cinerea; [3])	Test J disease control rating ([1]; 40 ppm (marked *))	Test D disease control rating (Alternaria solani; 40 ppm (marked *))	Test G disease control rating (Septoria tritici; 40 ppm (marked *))	Test F disease control rating (Septoria nodorum; 40 ppm (marked *))	Test I disease control rating ([2]; 40 ppm (marked *))	Test C disease control rating (Botrytis cinerea; 40 ppm (marked *))
COc1cc(F)c(-c2c(-c3ccc(Cl)cc3)c(C)nn2C)c(F)c1 [compound 77]	100%	100%	97%	82%	99%	98%	–	–	–	–	–	–
COc1cc(F)c(-c2c(-c3cccc(F)c3)c(C)nn2C)c(F)c1 [compound 78]	100%	100%	92%	0%	99%	91%	–	–	–	–	–	–
COc1cc(F)c(-c2c(-c3ccc(Cl)c(F)c3)c(C)nn2C)c(F)c1 [compound 79]	100%	97%	95%	0%	92%	53%	–	–	–	–	–	–
Cc1nc(Cl)c(-c2c(F)ccc(F)c2Cl)n1-c1ccc(Cl)cc1 [compound 80]	100%	100%	98%	100%	100%	90%	–	–	–	–	–	–
Cc1nc(Cl)c(-c2c(F)cccc2F)n1-c1ccc(OC(F)(F)F)cc1 [compound 81]	100%	100%	93%	69%	98%	81%	–	–	–	–	–	–
Cc1ccc(-n2c(C)nc(Cl)c2-c2c(F)cccc2F)cc1 [compound 82]	100%	100%	91%	100%	99%	90%	–	–	–	–	–	–
Cc1nc(Cl)c(-c2c(F)cccc2F)n1-c1ccc(F)cc1 [compound 83]	100%	100%	98%	99%	100%	97%	–	–	–	–	–	–
Fc1cccc(F)c1-c1c(Cl)nc(Br)n1-c1ccc(C(F)(F)F)cc1 [compound 84]	99%	99%	88%	0%	91%	0%	–	–	–	–	–	–
Fc1ccc(F)c(-c2c(Cl)nc(Br)n2-c2ccc(Cl)cc2)c1 [compound 85]	100%	100%	98%	11%	96%	73%	–	–	–	–	–	–
Fc1cccc(C(F)(F)F)c1-c1c(Cl)nc(Br)n1-c1ccc(Cl)cc1 [compound 86]	99%	0%	93%	0%	27%	0%	–	–	–	–	–	–
Cc1nn(C)c(-c2c(Cl)cccc2Cl)c1-c1ccc(Cl)cc1 [compound 87]	99%	0%	84%	0%	27%	0%	–	–	–	–	–	–
Cc1nn(C)c(-c2c(Cl)cccc2Cl)c1-c1cccc(F)c1 [compound 88]	99%	0%	0%	0%	68%	75%	–	–	–	–	–	–
Cc1nn(C)c(-c2c(Cl)cccc2Cl)c1-c1ccc(Cl)c(F)c1 [compound 89]	98%	0%	3%	0%	85%	0%	–	–	–	–	–	–
Fc1cccc(Cl)c1-c1c(Cl)nc(C(F)(F)F)n1-c1ccc(Cl)cc1 [compound 90]	0%	0%	0%	0%	54%	0%	–	–	–	–	–	–
Cc1nc(Cl)c(-c2c(F)ccc(Br)c2F)n1-c1ccc(Cl)cc1 [compound 91]	100%	100%	99%	100%	96%	98%	–	–	–	–	–	–
Cc1nc(Cl)c(-c2c(F)cccc2F)n1-c1ccc(C(F)(F)F)cc1 [compound 92]	100%	100%	98%	0%	89%	76%	–	–	–	–	–	–
Cc1nc(Cl)c(-c2cc(F)ccc2F)n1-c1ccc(Cl)cc1 [compound 93]	100%	100%	99%	100%	98%	97%	–	–	–	–	–	–
Cc1nc(Cl)c(-c2c(F)cccc2C(F)(F)F)n1-c1ccc(Cl)cc1 [compound 94]	100%	53%	95%	0%	99%	56%	–	–	–	–	–	–
Fc1cccc(F)c1-c1c(Cl)nc(Br)n1Cc1ccccc1 [compound 95]	100%	97%	95%	95%	100%	96%	–	–	–	–	–	–
COc1cc(F)c(-c2c(Br)nc(OC)n2-c2ccc(Cl)cc2)c(F)c1 [compound 96]	–	–	–	–	–	–	99* %	100* %	97* %	97* %	97* %	98* %
Cc1ccc(F)c(-c2c(Cl)ncn2-c2ccc(Cl)cc2)c1F [compound 97]	99%	97%	95%	0%	91%	94%	–	–	–	–	–	–
Fc1cc(F)c(-n2cnc(Cl)c2-c2ccc(Cl)cc2)c(F)c1 [compound 98]	–	–	–	–	–	–	0* %	0* %	27* %	0* %	0* %	0* %
CN(C)c1ncn(Cc2ccc(Cl)cc2)c1-c1c(F)cccc1F [compound 99]	0%	0%	25%	0%	91%	0%	–	–	–	–	–	–
Fc1ccc(Cl)c(F)c1-c1c(Cl)nc(Br)n1-c1ccc(Cl)cc1 [compound 100]	99%	93%	97%	99%	98%	97%	–	–	–	–	–	–
Fc1cccc(F)c1-c1c(Cl)nc(Br)n1Cc1cccc(Cl)c1 [compound 101]	99%	0%	97%	0%	100%	88%	–	–	–	–	–	–
Fc1cc(Cn2c(Br)nc(Cl)c2-c2c(F)cccc2F)ccc1Cl [compound 102]	99%	0%	97%	55%	99%	98%	–	–	–	–	–	–
